Assay results published in patent publication US20250136997A1, “COMPOSITIONS FOR SEQUESTERING ISOAMYL AMINE AND METHODS OF USE THEREFOR” (University of Louisville Research Foundation, Inc., priority 2023, published 2025).

Key:
[1] = Morris water maze (MWM) test; format: in vivo, mouse
Procedure: Morris water maze (MWM) test. Mice were trained in a 122 cm diameter, 50 cm height open-field water maze with non-reflective interior surfaces. The pool water was filled with water maintained at 25±1° C. and mixed with non-toxic white tempera paint. Distinctive and extra-maze cues were marked on the wall at specific locations and were visible to the mice in the maze. Mice were removed from cages, placed into the water from quasi-random start points and allowed a maximum of 60 seconds to probe the escape platform. The inter interval of each trail remained for 15 seconds. For four consecutive days, four trials (training) were recorded each day with a final test on day 5 (FIG. 4A). Performance was evaluated by the mean escape latencies base on every training trial (Vorhees and Williams, 2006).

[2] = HPLC analysis of IAA and CA in serum and cerebrospinal fluid (CSF) of mice; format: in vivo, mouse
microglia = test: S100A8 and cleaved caspase-3 in brain microglia of treated mice (qPCR, western blot); format: in vivo, mouse
Procedure: Isolation of microglia, neuron, astrocytes, and oligodendrocytes from the brain. Mice were anaesthetized with a mixture of ketamine (16%) and xylazine (3%) by intraperitoneal injection and then sacrificed under basal conditions by transcardial perfusion with perfusion buffer (Ca^2+/Mg^2+ free HBSS containing 0.5 mM EGTA, 10 mM HEPES and 4.2 mM NaHCO3; pH 7.2). The perfused brain was removed and gently mechanically disaggregated with tweezers in dissociation buffer (HBSS containing 10 mM HEPES and 4.2 mM NaHCO3 supplemented with Type I collagenase (0.05%), Dispase II (25 mg/ml), DNase I (2.5 mg/ml), trypsin inhibitor ([…]); pH 7.5) followed by incubation at 37° C. for 1 hour. The tissue homogenate was centrifuged at 1,350×g for 5 minutes at 4° C. […]
Quantitative Real-Time PCR (qPCR) analysis of mRNA expression. […] For analysis of gene mRNA expression, […] of total RNA was reverse transcribed by SuperScript III reverse transcriptase (Invitrogen) and quantitation was performed using primers (Eurofins) with SSOADVANCED™ Universal SYBR Green Supermix (BioRad); GAPDH was used for normalization. […] Analysis and fold-change were determined using the comparative threshold cycle (Ct) method. […] Setting the expression value of GAPDH to 1.0, the relative expression values were calculated as […]. The change in mRNA expression was calculated as fold-change. […]

[3] = Interaction of S100p1-G and metabolite: streptavidin pull-down from BV2 cells and LC-MS; format: cell-based, mouse
Procedure: Interaction of S100p1-G and metabolite. Microglial BV2 cells (2×10^6) were transfected with biotinylated oligo S100p1-G or mutant using Lipofectamin RNAiMAX Reagent (Thermo Fisher) according to the manufacturer's instructions overnight at 37° C. […] of aged mouse fecal supernatant (from one-gram feces) was added into the cell growth medium. After six hours, the cells were collected in RIPA lysis buffer. […] of cell lysate was incubated with […] of DYNABEADS® Streptavidin beads (Thermo Fisher) at room temperature for 1 h. The bio-oligo complex was eluted with biotin (4 mg/ml)) in 25 mM Tris-HCL containing 0.3 M NaCl (PH 8.5) at 95° C. for 5 minutes. Metabolite analysis was performed with LC-MS.

[4] = Surface plasmon resonance (SPR) of biotin-labeled oligos with IAA; format: binding; conditions: biotin labeled oligo on streptavidin sensor chip
Procedure: Surface plasmon resonance (SPR). To identify the binding activity of the metabolite IAA and S100A8 promoter sequence, SPR experiments were conducted on an OPENSPR™ (Nicoya, Lifesciences, CA). Experiments were performed on a streptavidin sensor (Nicoya, Lifesciences). SPR was run at a flow rate of 20 μl/min using HBS running buffer (20 mM HEPES, 150 mM NaCl, pH 7.4). First, the streptavidin sensor chip was cleaned with octyl β-D-glucopyranoside (40 mM) and CHAPS (20 mM). 200 μl of biotin-conjugated oligos (1 μg/ml, Table 5) were injected on the sensor chip for 10 minutes until a stable resonance was obtained. After immobilization of bio-oligo, the surface was blocked with BSA (3%) in running buffer. After a stable signal was obtained, IAA (10 nM) was run over the immobilized bio-oligo until a stable resonance was obtained. A negative control test was also performed by injecting IAA onto a blank sensor chip to check for non-specific binding. The sensograms were analyzed using TraceDrawer kinetic analysis software.

[5] = IAA to young mice, phage to aged mice, oral gavage two months

CC(C)CCN [IAA, isoamylamine]
swim speeds in MWM ([1]; IAA (0.5 g/kg) to young mice, phage^TSD-27 (1×10^9 pfu/mouse) to aged mice, oral gavage every other day, two months): reduced
latency time to reach the platform in MWM [1, 5]: induced
memory and learning (normalized test path length, MWM) [1, 5]: induced the memory and learning loss
pass through the blood-brain barrier (BBB) ([2]; aged mice, serum and CSF, gut-derived metabolite): higher amounts than CA
IAA level in the serum (HPLC) ([2]; young mice gavage-given IAA, aged mice gavage-given phage^TSD-27): increased
S100A8 and cleaved caspase-3 in the microglia (microglia; all five major regions of the brain, IAA oral gavage): induced
metabolite within the Bio-S100p1-G complex (LC-MS) ([3]; cell lysates): only IAA interacts with S100p1-G

S100p1-G: CTGTGGGCAG CTGGCCAAGC (SEQ ID NO: 8), S100A8 promoter −57 . . . −38 (DNA CTGTGGGCAGCTGGCCAAGC; chemistry not given here)
memory and spatial learning (MWM) ([1]; aged mice, intravenous, twice a week for 2 months): recovered
IAA in CSF (HPLC) ([2]; aged mice, intravenous oligo, twice a week for 2 months): decline
interaction with IAA (SPR) [4]: targeted by IAA
expression of S100A8 and cleaved caspase-3 in microglia cells (qPCR, western blot) (microglia; young mice, gavage every other day for 2 months): prevented
IAA recruited to the oligo complex (LC-MS after pull-down) ([3]; microglial cells, gut fecal supernatant, 6 h, biotinylated oligo): recruited
